Laboratory results published in publication PMC6801448, “The Antioxidant and Antiproliferative Activities of 1,2,3-Triazolyl-L-Ascorbic Acid Derivatives” (International Journal of Molecular Sciences, 2019).
pIC50: −log10 of the molar value. Entries after “also recorded” stand apart in the source; their conditions may differ.

Columns and labels:
WI-38 (lung fibroblasts) = assay: MTT proliferation assay, WI-38; type: cell-based; settings: Homo sapiens, 72 h, normal lung fibroblasts
In short: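 The 72 h proliferation test exposed cells, seeded at 5000 per well a day before, to compound concentrations spanning 0.01 μM to 100 μM. Viability was measured by MTT reduction over 3 h with absorbance at 570 nm, and IC50 values were derived by regression of the concentration–growth curves.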

MCF-7 cells = assay: Annexin V apoptosis detection assay; type: cell-based, Human
Experimental: A total of 2 × 10^4 MCF-7 cells were seeded into 8-well Nunc Lab-Tek II Chamber Slide system (Thermo Fischer Scientific, Waltham, MA, USA), and treated with compound 4e at 1 × IC50 and 2 × IC50 for 24 and 48 h. The assay (Annexin-V-FLUOS Staining kit, Roche Applied Science, Penzberg, Germany) was preformed according to the manufacturer protocol. Slides were analyzed by fluorescence microscopy (Zeiss Axio Observer Z1 Inverted Phase Contrast Fluorescent Microscope, Jena, Germany)).

[1] = system: hydroxylated HIF-1α (Pro564); assay: Western blot of hydroxy-HIF-1α in MCF-7 cells; type: cell-based, Human; settings: MCF-7, 6.72 µM, 48 h
Experimental: Protein lysates were prepared using RIPA buffer containing cocktail of protease and phosphatase inhibitors (Roche, Basel, Switzerland). Amounts of 50 μg of proteins were resolved on 12% SDS polyacrylamide gels using the Mini-protean cell (Bio-Rad, Hercules, CA, USA). The membranes were incubated with primary antibodies raised against hydroxy-HIF-1α (Pro564) (HIF-1α, 1:1000, rabbit mAb, Cell Signaling Technology, NL) and NOS2 (1:500, mouse mAb, SantaCruzBiotechnology, Dallas, TX, USA) at 4 °C overnight. A secondary antibody linked to anti-mouse (1:1000, Dako, Santa Clara, CA, USA) was used. The signal was visualized by the Western Lightening Chemiluminescence Reagent Plus Kit (Perkin Elmer, Massachusetts, MA, USA) on the ImageQuant LAS500 (GE Healthcare, Chicago, IL, USA), and as a loading control, α-tubulin (1:1000, mouse mAb, Sigma, Sigma Aldrich, Darmstadt, Germany) was used. The signal intensities of bands were normalized and compared in Quantity One software (Bio-Rad, Hercules, CA, USA). Differences in protein relative expression status obtained by western blot analysis were analyzed by two-tailed, paired t-tests (p < 0.05) in the Statistica software package (v.12.0).

[2] = MCF-7, 24 h, 6.72 µM (1 × IC50)
[3] = MCF-7, 24 h, 13.44 µM (2 × IC50)
[4] = MCF-7, 24 h, 1 × IC50, versus untreated cells
[5] = MCF-7, 48 h, 6.72 µM (1 × IC50)
[6] = MCF-7, 48 h, 13.44 µM (2 × IC50)

- melting point: 159 to 160 °C
Structure (SMILES): O=C1O[C@H]([C@@H](O)Cn2cc(-c3ccc(Br)cc3)nn2)C(O)=C1O [Compound 4e, 6-[4-(4-bromophenyl)-1,2,3-triazol-1-yl]-6-deoxy-L-ascorbic acid]
- pIC50 (WI-38 (lung fibroblasts)): 4.13
- Early Apoptosis (%) (MCF-7 cells; [2]): 30.6%
- Late Apoptosis (%) (MCF-7 cells; [2]): 6.4%
- Necrosis (%) (MCF-7 cells; [2]): 0.8%
- Early Apoptosis (%) (MCF-7 cells; [3]): 5.3%
- Late Apoptosis (%) (MCF-7 cells; [3]): 38.1%
- Necrosis (%) (MCF-7 cells; [3]): 15.9%
- increase in early apoptotic cell population (MCF-7 cells; [4]): 12.4%
- increase in late apoptotic cell population (MCF-7 cells; [4]): 2.0%
- Early Apoptosis (%) (MCF-7 cells; [5]): 46.6%
- Late Apoptosis (%) (MCF-7 cells; [5]): 4.2%
- Necrosis (%) (MCF-7 cells; [5]): 0.8%
- Early Apoptosis (%) (MCF-7 cells; [6]): 9.1%
- Late Apoptosis (%) (MCF-7 cells; [6]): 2.3%
- Necrosis (%) (MCF-7 cells; [6]): 0%
- percentage of cells in early apoptosis higher than in untreated cells (MCF-7 cells; MCF-7, 48 h, 1 × IC50, versus untreated cells): 35.2%
- hydroxylated HIF-1α (Pro564) expression [1]: statistically significant increase; also recorded: strongly increased
